Source: US20230293490A1, “PROFILIN1:ACTIN INHIBITOR AS AN ANTI-ANGIOGENIC COMPOUND” (University of Pittsburgh- Of the Commonwealth System of …, priority 2020, published 2023)

Assays:
[1] = test system: Pfn1-actin interaction; test: Pyrene-actin polymerization assay; format: biochemical
Text: (§1) Note that contrasting its effect in cells, in biochemical assay Pfn1 inhibits actin polymerization by actin sequestering, and neither compound affects actin polymerization kinetics without the presence of Pfn1 (an important screening criterion).

[2] = test system: RENCA cells; test: Subcutaneous RENCA tumor model, daily intratumoral injection; format: in vivo, Balb/c mice
Text: To determine whether C74 has any therapeutic benefit in vivo, we performed an exploratory study in which we established subcutaneous tumors by transplantation of RENCA cells in syngeneic Balb/c mice and injected either C74 or DMSO (vehicle) directly at the tumor cell inoculation site daily over a course of 19 days starting from day 1.
In vivo tumorigenesis: In 6 to 8 week old BALB/cJ mice, 1×10^6 RENCA cells were implanted subcutaneously in a 1:1 PBS:Matrigel (R&D Systems; Minneapolis, MN) mixture, supplemented with 81 μg C74 or DMSO control. Intratumoral injections were then given daily with either 320 μg C74 or control dissolved in saline, through day 19 post-implantation. On day 20, mice were sacrificed and harvested tumors were weighed. All animal experiments were performed according to the institutionally approved animal welfare guidelines.

[3] = test system: human dermal VEC; test: Matrigel cord assay (in vitro angiogenesis); format: cell-based; settings: for concentration able to inhibit angiogenesis: matrigel cord assay, human dermal VEC
Experimental: as §1
(§2) Cell culture, transfection and viral transduction: Murine VHL-deleted variant of RENCA (referred to as RVN cells) cells were cultured in DMEM with 10% (v/v) FBS and 1% (v/v) antibiotics. Human VHL-negative 786-0 cells (source: ATCC) were cultured in RPMI-1640 media supplemented with 10% (v/v) FBS and antibiotics. HmVEC-1, a widely used immortalized human dermal microvascular EC line (ATCC; CRL-3243—referred to as VEC), were cultured in MCDB-131 (Life Technologies; Carlsbad, CA) growth medium supplemented with 10% (v/v) FBS, 1% (v/v) antibiotics, 10 ng/mL EGF, 1 μg/mL Hydrocortisone and 10 mM L-Glutamine. For adenovirus infection, cells were plated, allowed to attach and then infected with adenovirus encoding either GFP (Ad-GFP) or Pfn1 (Ad-Pfn1) at a MOI of 500 for 24 h, before further incubation for an additional 48h in fresh culture media prior to use. For knockdown studies, cells were transfected with 50 nM of either smart-pool control or Pfn1 siRNA for 72 h.

[4] = test system: choroidal explant; test: Choroidal explant angiogenesis culture (ex vivo)
[5] = test system: human renal cancer cell line; test: Human renal cancer cell line migration; format: cell-based; settings: dose dependent
[6] = test system: human retinal endothelial cells; test: Angiogenic capability of human retinal endothelial cells in vitro; format: cell-based
[7] = test system: RVN cells; test: RVN cell proliferation assay; format: cell-based, murine; settings: dose-dependent
Experimental: as §2, with “For knockdown studies, cells were transfected with 50 nM of either smart-pool control or Pfn1 siRNA for 72 h.” left out
(§3) Cell migration and proliferation assays: For single-cell migration experiments, RVN, VEC and 786-0 cells were plated in 24-well plates coated with type I collagen (Millipore) overnight. […] For cell proliferation assay, one thousand RCC cells were plated per well in 96-well plates using quadruplicate determinations, with proliferation assessed by time-course analyses of DAPI-stained nuclei based on images acquired over 3 to 5 random fields per well.

[8] = test system: RVN cells; test: Serum-induced chemotactic (transwell) migration of RVN cells; format: cell-based, murine; settings: dose-dependent
Experimental: as §2, with “For knockdown studies, cells were transfected with 50 nM of either smart-pool control or Pfn1 siRNA for 72 h.” left out
as §3

[9] = test system: choroidal NV; test: Laser-induced choroidal NV (CNV) model, IVT injection; format: in vivo, mice; settings: IVT C74 (50 μM)
Experimental: FIGS. 8A-8D. […] Laser-induced choroidal NV (CNV—an in vivo model that induces sub-retinal NV in response to laser injury in mice and is widely used to study NV aspects of wet AMD) in the settings of IVT injection of either DMSO (VEH) or C74 (50 μM) (panel C) and associated quantification (panel D).

[10] = test system: human renal cancer cell line; test: Human renal cancer cell line proliferation; format: cell-based; settings: dose dependent

Structure (SMILES)	reversal of Pfn1's inhibition of actin polymerization ([1]; actin plus Pfn1, fluorescence measures actin polymerization)	effect on actin polymerization without Pfn1 ([1]; compound alone, no Pfn1)	average end-point tumor burden (tumor weight) ([2]; daily injection at tumor site over 19 days, tumors weighed day 20, n=10 animals)	tumor angiogenesis (CD31-positive immune-reactive region of tumor histosections) ([2]; daily intratumoral administration, relative to DMSO)	fold lower concentration than C2 to inhibit angiogenesis ([3]; C74 vs C2)	concentration able to inhibit angiogenesis [3]	choroidal neovascularization ex vivo [4]	migration [5]	angiogenic capability [6]	range of concentrations reducing proliferation [7]	range of concentrations reducing migration [8]	choroidal neovascularization in vivo [9]	proliferation [10]
Cc1n[nH]c(O)c1C(c1ccc(Br)cc1)c1c(C)n[nH]c1O [C74, 4-[(4-bromophenyl)(5-hydroxy-3-methyl-1H-pyrazol-4-yl)methyl]-3-methyl-1H-pyrazol-5-ol]	can reverse Pfn1's inhibition of actin polymerization	does not significantly alter actin polymerization on its own	978.8 ± 366.0 mg	reduces tumor angiogenesis	~5 fold	10 µM	inhibited	reduced	inhibited	10 to 25 µM	10 to 25 µM	inhibited	reduced
Oc1cccc(C2c3c(-c4ccccc4)nnc(O)c3Nc3nnnn32)c1 (centres unmarked) [C2, 8-(3-hydroxyphenyl)-10-phenyl-2,4,5,6,7,11,12-heptaazatricyclo[7.4.0.0^3,^7]trideca-1(13),3,5,9,11-pentaen-13-ol, reference compound]	–	–	–	–	–	50 µM	–	–	–	–	–	–	–
